Read-outs that look alike come from different tables or passages of the source.

Holding throughout (type): cell-based
The subject of data set [1] is human stomach adenocarcinoma-derived cell line AGS. Description: Various human cancer cells-2, 3D culture, ATP assay (Experimental Example 6). As to conditions: 4 days; for viability at 5 µM / viability at 10 µM: Homo sapiens, 96 h, read-out: number of viable cells (RLU), relative value to control (100%).
Data set [2] deals with human prostate cancer-derived cell DU145. Described as above. To be noted: 4 days.
For data set [3], the system named is human uterus cervix cancer-derived cell line HeLa. The data set is described as above. To be noted: 4 days.
Data set [4] has as its system Canine kidney renal tubule epithelial cells (MDCK cells). Description: MDCK cells-2: Cyst formation on Matrigel, size and number of Cysts (Experimental Example 8). As to conditions: for proportion of Cysts of 70 μm or more: 6 days, control 35%; for Cyst morphology, confocal fluorescence microscope (in words): FIG. 1. The method, then:
Canine kidney renal tubule epithelial cells (MDCK cells, manufactured by DS PHARMA BIO MEDICAL) were precultured in EMEM medium containing 10% FBS and 1% NEAA. Cold Matrigel (registered trade mark) Matrix GFR (manufactured by Corning) was spread on a 24-well plate by 50 μL and fixed by incubating at 37° C. for 15 min. The aforementioned MDCK cells were suspended in a medium at 10000 cells/mL, cold Matrigel (registered trade mark) Matrix GFR was added at 20 μL/mL and seeded at 1 mL/well. […] As a control (compound no-addition), DMSO was added at a final concentration of 0.1%. Six days later, the size and number of Cysts formed were measured using Cell^3iMager (manufactured by Screen Inc.). The proportion of the Cysts of 70 μm or more in the entire Cysts is shown in the fourteenth table.
The cells were washed with PBS (1 mL/well), 4% paraformaldehyde/PBS (manufactured by Wako Pure Chemical Industries, Ltd.) was added (1 mL/well) and fixed at room temperature for 20 min. Thereafter, the supernatant was removed, IF buffer (0.2% Triton X-100 (manufactured by Sigma-Aldrich), 0.05% Tween 20 (manufactured by Sigma-Aldrich)-containing PBS) were added at 1 mL/well, stood for 30 min and removed. Penetration buffer (0.5% Triton X-100 (manufactured by Sigma-Aldrich)/PBS) was added at 1 mL/well and incubated at room temperature for 30 min. The supernatant was removed, washed 3 times every 5 min with IF buffer, blocking buffer (1% BSA (manufactured by Sigma-Aldrich)/IF buffer) was added at 0.5 mL/well and incubated for 30 min. The supernatant was removed, an anti-P catenin antibody (manufactured by BD Bioscience) diluted 100-fold with blocking buffer was added at 250 μL/well, and the cells were incubated at room temperature for 60 min. The cells were washed 3 times every 5 min with IF buffer, the secondary antibody (Alexa Fluor 555, manufactured by Thermo Fisher Scientific) and Phalloidin (Alexa Fluor 488, manufactured by Thermo Fisher Scientific), each diluted 250-fold with blocking buffer, were added at 250 μL/well, and the cells were incubated at room temperature in shading for 60 min.

For data set [5], the system named is CD34, CD73, CD29 of hMSC. In words: Human mesenchymal stem cells-1: cell surface markers by FACS after 3D culture (Experimental Example 9). As to conditions: for CD34+ (negative rate) / CD29+ (positive rate) / CD73+ (positive rate): hMSC after 3D culture, 10 μM, 7 days; for CD34+ (negative rate): no addition 0.9%; for CD29+ (positive rate): no addition 94.6%; for CD73+ (positive rate): no addition 99.9%; for undifferentiated state of hMSCs (in words): surface markers CD34, CD73, CD29 did not change. As to the method:
Human mesenchymal stem cells (hMSC, manufactured by TOYOBO) were precultured by a single layer culture method (2D) using an MF-medium mesenchymal stem cell proliferation medium (manufactured by TOYOBO). In three-dimensional culture method (3D), hMSC were suspended in a medium composition added with deacylated gellan gum, and seeded in a […] flat bottom Ultr-low Attachment surface plate (manufactured by Corning Incorporated, #3471) at 1.2×10^5 cells/2 mL/well. In 2D, hMSC were suspended in a deacylated gellan gum-free medium composition, and seeded in a 6-well flat bottom plate (manufactured by Corning Incorporated, #3516) at 4.0×10^4 cells/2 mL/well. […] As a control, DMSO was added at a final concentration of 0.1%. Seven days later, in the three-dimensional culture method, cells were collected from the wells, washed with PBS, and the supernatant was removed. Then, a trypsin 0.25 w/v % trypsin-1 mmol/L EDTA (ethylenediaminetetraacetic acid) solution (manufactured by Wako Pure Chemical Industries, Ltd.) was added and the cells were incubated at 37° C. for 2-5 min to disperse the spheres into single cells. The medium was added, and the mixture was centrifuged to remove the supernatant. Thereafter, the cells were resuspended in the same medium, a part was suspended in Trypan Blue (manufactured by Wako Pure Chemical Industries, Ltd.), and the number of viable cells was counted using automatic cell counter TC20 (manufactured by BIO-RAD).
CD34 antibody (APC, manufactured by BD Bioscience), CD73 (BV421, manufactured by BD Bioscience), CD29 (BB515, manufactured by BD Bioscience) were added to the above-mentioned cell suspension, and the mixture was incubated on ice for 30 min. The cells were washed twice with 2% SM buffer (2% FBS/PBS), SM containing 1 μg/mL of Propidium Iodide (PI) was added, and the mixture was analyzed with FACSAria (manufactured by Becton Dickinson). The cell number with compound non-addition (control) was taken as 1, and relative value with addition of each compound is calculated in the fifteenth table. The positive rates or negative rates of CD34, CD73, and CD29 of cells after three-dimensional culture (3D) under the conditions with no addition or addition of the compound are shown in the sixteenth table.
In general terms: In flow cytometry, cells or beads pass a laser one at a time.

The mark [6] stands for this setting: low attachment flat bottom plate (gellan gum medium), 5 μM.
The mark [7] stands for this setting: low attachment U-bottom plate, 5 μM.
Where [8] appears, read: low attachment U-bottom plate, 10 μM.
Where [9] appears, read: low attachment flat bottom plate (gellan gum medium), 10 μM.

As for `CC/C(=N\NC(=O)C(C)Nc1ccccc1)c1ccc(O)c(C)c1O` (centres unmarked) [k-1:B-1], in data set [1] (setting [6]), the viability at 5 µM is greater than 120%. For the same compound, the “number of viable cells (RLU), relative value to control (100%)” value (“number … relative value to control (100%)” below) in data set [1] (setting [7]), in data set [1] (setting [8]), in data set [1] (setting [9]), in data set [2] (setting [7]), in data set [2] (setting [8]) and in data set [2] (setting [6]) was “⊙” throughout. Also, the “number … relative value to control (100%)” value in data set [2] (setting [9]), in data set [3] (setting [7]), in data set [3] (setting [8]), in data set [3] (setting [6]) and in data set [3] (setting [9]) was “⊙” each time. The “proportion of Cysts of 70 μm or more in the entire Cysts (in words)” value in data set [4] is recorded as “increased”. Further, the figures for the “proportion of Cysts of 70 μm or more” value in data set [4] (5 μM) and in data set [4] (10 μM) were 72% and 68%, respectively. In addition, the “Cyst morphology, confocal fluorescence microscope (in words)” value in data set [4] is reported as “a normal Cyst was formed”.
On to `CCC(=NNC(=O)C(CC)Nc1ccccc1)c1ccc(O)c(C)c1O` (centres unmarked) [k-1:H-7], for which, in data set [5], the “CD34+ (negative rate)” value is on record as 3%, the “CD29+ (positive rate)” value was 94.6%, the “CD73+ (positive rate)” value stood at 100% and the “undifferentiated state of hMSCs (in words)” value was “promote cell proliferation while maintaining undifferentiated state of hMSCs”.
On the same counts, the results for `CC/C(=N\NC(=O)Nc1ccccc1)c1ccc(O)c(C)c1O` [k-1:H-10] are 0.7%, 87.6%, 99.1% and “promote cell proliferation while maintaining undifferentiated state of hMSCs”.
On to `CC/C(=N\NC(=O)NCc1ccccc1)c1ccc(O)c(C)c1O` [k-1:I-1], for which the viability at 5 µM in data set [1] (setting [7]) was less than 119%; in data set [1] (setting [6]) it was 120 to 150%; in data set [2] (Homo sapiens, DU-145, 96 h, low attachment U-bottom plate, 5 μM, read-out: number of viable cells (RLU), relative value to control (100%)), less than 119%; in data set [2] (Homo sapiens, DU-145, 96 h, low attachment flat bottom plate (gellan gum medium), 5 μM, read-out: number of viable cells (RLU), relative value to control (100%)) it was 120 to 150%; in data set [3] (Homo sapiens, 96 h, low attachment U-bottom plate, 5 μM, read-out: number of viable cells (RLU), relative value to control (100%)) it was less than 119%. In addition, the viability at 10 µM was 120 to 150% in data set [1] (setting [8]); 120 to 150% in data set [1] (setting [9]); 120 to 150% in data set [2] (Homo sapiens, DU-145, 96 h, low attachment U-bottom plate, 10 μM, read-out: number of viable cells (RLU), relative value to control (100%)); less than 119% in data set [3] (Homo sapiens, 96 h, low attachment U-bottom plate, 10 μM, read-out: number of viable cells (RLU), relative value to control (100%)). Besides, the “number … relative value to control (100%)” value in data set [2] (setting [9]) is “⊙”. Further, in data set [4], the “proportion of Cysts of 70 μm or more in the entire Cysts (in words)” value is “increased”. The “proportion of Cysts of 70 μm or more” value in data set [4] (5 μM) was found to be 39%; in data set [4] (10 μM), 43%. Further, the “Cyst morphology, confocal fluorescence microscope (in words)” value in data set [4] is listed as “a normal Cyst was formed”.

Values taken from patent US20200165194A1, “ADDITIVE COMPOSITION FOR CULTURE MEDIUM, ADDITIVE COMPOUND FOR CULTURE MEDIUM, AND METHOD FOR CULTURE OF CELLS OR TISSUE USING SAME” (NISSAN CHEMICAL CORPORATION, priority 2017, published 2020).
